The test system of assay [1] is growth hormone. Description: In vivo effect on growth hormone levels in nembutal-treated rats, radioimmunoassay. Particulars: nembutal 50 mg/kg i.p., compound subcutaneously 3100 μg/kg, blood 15 minutes after injection, control 296 ± 25. Here is the method: (§1) The effect on glucagon, growth hormone and insulin levels of the compound of Example 7 was determined by injecting rats weighing about 200-240 g first with nembutal intraperitoneally at a dose of 50 mg/kg then after 5 minutes injecting the rats subcutaneously with a solution of the compound of Example 7 in saline at a dose of 3.1 mg/kg per rat. Blood samples are taken 15 minutes after injection with the compound of Example 7. The glucagon, growth hormone and insulin levels were determined by radioimmunoassay.

For assay [2], the system named is insulin. Description: In vivo effect on insulin levels in nembutal-treated rats, radioimmunoassay. The conditions noted are these: nembutal 50 mg/kg i.p., compound subcutaneously 3100 μg/kg, blood 15 minutes after injection, control 171 ± 4. The protocol: as §1
Assay [3] concerns glucagon. Particulars: rats, nembutal 50 mg/kg i.p., compound subcutaneously 3100 μg/kg, blood 15 minutes after injection; control 10.5 ± 2. The protocol: as §1

As to “L-Lysyl-L-lysyl-L-asparaginyl-L-phenylalanyl-L-phenylalanyl-L-tryptophyl-L-lysyl-L-threonyl-L-phenylalanyl-L-threonyl-L-seryl-L-aspartic acid cyclic (12β→1ε)-peptide, triacetate [Example 7]”, in assay [1], the GH was 227 ± 32 ng/kg. Besides, the Insulin in assay [2] amounted to 182 ± 16 μU/ml. The same substance gave a Glucagon in assay [3] of 3.3 pg/mL.

Values taken from US4000259A, “Cyclic dodecapeptide analogs of somatostatin and intermediates” (American Home Products Corporation, priority 1975, dated 1976).
